In turn, `COc1ccc(/C=C/C(=O)Nc2ccccc2C(=O)OCC(=O)NCC(C)(C)S)cc1OC` came in with a melting point of 148 to 150 °C.
`COc1ccc(CCC2SC(=O)NC2=O)c2ccc(=O)n(C)c12` (stereo not drawn) had a melting point of 222 to 224 °C.
In turn, `CC(C)(C)[Si](C)(C)OCCc1c(N)nc(SCc2ccc3ccccc3c2)nc1O` had a melting point of 156 to 158 °C.
Next, `CCc1c(-c2ccc(O)cc2)c2cc(COCCN(CC)CC)c3cccc1n32`: 93 to 95 °C; `Cn1c2c(c3ccccc31)Cc1c(CO)c(CO)c(-c3ccc(Cl)cc3)n1C2`: 238 to 239 °C.
With `Cc1cc(C)n(-c2ccc(OC=C3C=CC=CC3n3nnn(C)c3=O)c(Cl)c2)n1` (stereo not drawn) the figure was 122 to 124 °C.
With `N=C(N)c1ccc(C(=O)Nc2ccc(Nc3cc(-c4cccc5c4oc4ccccc45)ncn3)cc2)cc1` the figure was 213 to 219 °C; with `COc1cc2c(c(OC)c1OC)C(=O)O[C@H]2CO`, 178 to 180 °C.
As for `CN(C)C=Nc1sc(C#N)c(Cl)c1C#N`, the melting point was 226 °C.
Next, `COC(=O)c1cccc(-c2cn(C)cc(-c3cccc(C)c3)c2=O)c1`: 180 to 183 °C; `CC(C)(C)OC(=O)N[C@H]1CN(Cc2ccccc2)[C@@H]2CCCO[C@H]12` (relative stereo): 82 to 84 °C.
`CCCC12CCC(=O)C=C1c1c(cc(CC(=O)O)c(Cl)c1Cl)O2` (stereo not drawn) came in with a melting point of 248 to 250 °C.
Consider `COc1ccc2c3c(cnc2c1)CCCC3O[Si](C)(C)C(C)(C)C` (stereo not drawn), for which the melting point lay in the range of 102 to 104 °C.
Next, `CCOC(=O)c1cnc2cc(Cl)ccc2c1N=[N+]=[N-]`: 94.5 °C; `COc1ccc(Oc2ccc(C(=O)CC(SC(C)=O)C(=O)O)cc2)cc1` (stereo not drawn): 110 to 111 °C.
Next, `Cc1nc(NCCc2ccccc2)c2c(n1)N(c1ccccc1)C(=O)C2`: 81 to 84 °C; `Nc1nc(Cl)nc(N(CCC(=O)O)Cc2ccc(Cl)c(Cl)c2)n1`: 105 to 110 °C.
Next, `CCOC(=O)c1cn(-c2nccs2)c2nc(Cl)cc(NCc3ccccc3)c2c1=O`: 141 to 143 °C; `CCc1cnc(N=Cc2cnc([N+](=O)[O-])n2C)n1CCO`: 185 to 187 °C.
In turn, `c1ccc2c(NC3CCCC3)nnc(Cc3ccncc3)c2c1` returned a melting point of 163 to 165 °C.
Next, `CN1CCC(c2c[nH]c3ccc(-n4ccnn4)cc23)CC1`: 251 to 254 °C; `COc1ccc(C(=CN2CCNC2=O)c2ccccc2)cc1OC`: 155 °C.
Compound `COc1cc(O)c(C(=O)C=Cc2ccc(N(C)C)cc2)c(OC)c1` returned a melting point of 197 °C.
In turn, `CCCCCC(CNC(=O)Nc1c(C(C)C)cccc1C(C)C)c1cccc2c1OCO2` (stereo not drawn) displayed a melting point of 161 to 163 °C.
Next, `CCCCn1c(C)c(N)c(=O)n(C)c1=O`: 74 to 75 °C; `Fc1ccccc1Cn1nc(-c2nc(C(F)(F)F)cc(C(F)(F)F)n2)c2cccnc21`: 109 °C; `CCCCCCCCCCCC(=O)Oc1ccc2cc(C(=N)N)ccc2c1`: 149 to 151 °C.
For the compound `CC(=O)c1cc(O)c(C)c(C)c1O`, the melting point is 151 °C.
For `CNC(=S)C1=CC(C)(C)Oc2ccc([N+](=O)[O-])cc21`, the melting point fell in the range of 147 to 148 °C.
Next, `O=C(Nc1cccc(S(=O)(=O)NCCc2ccncc2)c1)c1cnn2c(C(F)F)cc(-c3ccc(C(F)(F)F)cc3)nc12`: 238 °C; `Cn1c(=O)n(CCO)n(CCO)c1=O`: 126 to 127 °C; `CCCOc1ccc(S(C)(=O)=O)cc1-c1nc2c(CC)nn(Cc3ccccn3)c2c(=O)[nH]1`: 209 to 211 °C.
With `COc1cc(-c2nc3ccc(OCCCN(C)C)cc3n2Cc2ccccc2)cc(OC)c1OC` the figure was 112 °C.
With `CCN[C@H]1C[C@H](CCCOCCOC)S(=O)(=O)c2sc(S(N)(=O)=O)cc21` (relative stereo) the figure was 177 to 179 °C.
`CCOC(=O)c1cc2cc(NC(=O)OC(C)(C)C)ccc2[nH]1` came in with a melting point of 190 to 192 °C.
In turn, `O=C(NCc1ncc(Cl)cc1Cl)c1c(Cl)cccc1Cl` registered a melting point of 161 to 165 °C.
Next, `Cc1ccccc1S(=O)(=O)OC1C2C(C(=O)N1Cc1ccc3c(c1)OCO3)C(c1ccc(Br)cc1)N(C)C2(C)C` (stereo not drawn): 172 to 173 °C; `Cn1cc(C(N)=O)c(=O)c2cc(F)ccc21`: 295 to 299 °C.
Next, `CCOC(=O)C1=CCCCC1S(=O)(=O)Nn1c(C)ccc1C` (stereo not drawn): 96 to 97 °C; `O=C1CCCCC1C(=S)Nc1ccc(Br)cc1F` (stereo not drawn): 94 to 95 °C.
For the compound `CS(=O)(=O)N1CCN(S(=O)(=O)C=Cc2ccccc2)C(C(=O)NO)C1` (stereo not drawn), the melting point is 94 to 99 °C.
With `CS(=O)(=O)c1ccccc1S(=O)(=O)Nc1cccc2cc(C(=O)NCCSC(c3ccccc3)(c3ccccc3)c3ccccc3)[nH]c12` the figure was 91 to 93 °C; with `O=C1c2cc(OCc3ccccn3)ccc2OCC1Oc1cccnc1` (stereo not drawn), 155 to 156 °C; with `COC(=O)[C@@H]1[C@H](c2ccccc2)N1S(=O)(=O)c1ccc(C)cc1` (stereo partly drawn), 85 to 87 °C.
As for `C=Cc1c(N)nc(-c2ccc(Cl)nc2)nc1C(=O)OC`, the melting point was in the range of 194 to 195 °C.
With `CC(=O)OCC(CCn1cnc2c(Cl)nc(N)nc21)COC(C)=O` the figure was 135 to 137 °C; with `CCCCCCCCCCCCS(=O)(=O)Nc1cc(NC(=O)c2ccc(F)c(F)c2)ccc1OC`, 132 °C; with `C=CCNC(=O)c1ccccc1I`, 105 to 106 °C.
With `CC(C)n1nc(-c2c(Sc3ccccc3)nc(N)nc2-c2ccccc2)ccc1=O` the figure was 214 to 215 °C.
With `CNC(=O)Oc1ccc2c(c1)c1c(n2C)C2(CC1)CCN(Cc1ccccc1)CC2` the figure was 189 to 190 °C.
As for `Cn1nc(Br)c([N+](=O)[O-])c1NC(C)(C)C`, the melting point was 75 to 77 °C.
With `CCC(=O)CCCCCCCc1ccc(O)c(O)c1` the figure was 76 to 78 °C.
Next, `COC(=O)CC(C#N)c1cccc2ccc(OC)cc12` (stereo not drawn): 113 to 114 °C.
With `Cc1nnc(CNc2c(C)cccc2C)s1` the figure was 68 to 69 °C.
With `COCc1nc(-c2ccc(-c3cnc4[nH]c(=O)n(CC5CCOCC5)c4n3)cc2)n[nH]1`, the melting point fell in the range of 273 to 276 °C.
With `O=C(O)c1ccccc1N1CCN(CC(O)COc2cccc3ccccc23)CC1` (stereo not drawn), the melting point is 215 to 218 °C.
With `CC(C)N1CCC(CNc2ccc(F)cc2C(=O)Nc2ccc(Cl)cn2)CC1` the figure was 142 to 144 °C; with `O=C(c1ccccc1)c1cnn2cccnc12`, 174 to 175 °C; with `O=C(O)c1ccc(O)c(Nc2cc(Cl)cc(Cl)c2)c1`, 166 to 167 °C.
With `COc1ccc(C(=O)NCCN(C)C)cc1` the figure was 53 to 54 °C; with `O=C(O)Cc1c(C(=O)c2ccc3c(c2)CCO3)[nH]c2cc(Cl)ccc12`, 217 °C; with `COc1ccc(C(CC2=NOC(=O)C2)c2ccccc2)cc1OC1CCCC1` (stereo not drawn), 137 to 139 °C.
Next, `CSc1ccc(-c2n[nH]c(=O)cc2-c2ccc(F)cc2)cc1`: 197 to 198 °C; `CC(C)Oc1c(C(=O)O)sc2c1CS(=O)CC2` (stereo not drawn): 192 to 193 °C.
Turning to `O=c1[nH]c2cc(Cl)ccc2n1C1CCN(CC2=NOC(c3ccc(F)cc3)C2)CC1` (single isomer, unassigned; (-)), the melting point was in the range of 143 to 145 °C.
Next, `COc1ccc(C=CCO)cc1OC`: 70 to 71 °C.
With `Cc1ccccc1NCN1C(=O)CSC1=O` the figure was 109 to 111 °C; with `CN(C)CCOC(=O)c1cc2cccc(OCc3ccccc3)c2[nH]1`, 113 to 115 °C.
With `CCOC(=O)C1=CC(C(=O)c2cc(C)ccc2O)=CN2CCc3c([nH]c4ccc(OC)cc34)C12C(=O)OCC` (stereo not drawn) the figure was 228 °C.
With `CC(=O)c1nc(-c2ccc(=O)n(C(C)C)n2)c(-c2ccccc2)nc1N`, the melting point fell in the range of 234 to 236 °C.
Next, `CCOc1cccc2cc(C(=O)c3cc(OC)ccc3OC)oc12`: 55 to 57 °C.
With `CC(=O)N1CCC(C(=O)c2ccc(F)cc2F)CC1` the figure was 97 °C; with `CC1Cc2cc3c(cc2C(c2ccc([N+](=O)[O-])cc2)=NN1c1ccc(Cl)nn1)OCO3` (stereo not drawn), 254 to 255 °C.
As to `COC(=O)c1cc(OC)c(Br)c(OC)c1`, the melting point lay in the range of 120 to 122 °C.
With `CC(CN1CCCC1)N1c2ccccc2Sc2ccc(C(=O)NCc3c(Cl)cccc3Cl)cc21` (racemic) the figure was 138 °C; with `CC(CCCNc1ccccc1)C1CC=C2C3=C(CCC21C)C1(C)CCC(O)C(C)(C)C1CC3` (stereo not drawn), 178 to 180 °C.
Next, `COc1cccc(-c2c(F)c(F)c(N)c(F)c2F)c1`: 94 to 96 °C; `CC(=O)N1c2ccccc2CC1c1ccccc1NC(=O)C(C)(C)C` (stereo not drawn): 184 to 186 °C.
With `NC(=O)c1sc2nc(N3CCC(NCC(O)c4ccccc4F)CC3)cc(C(F)(F)F)c2c1N` (stereo not drawn) the figure was 192 to 194 °C; with `COc1ccc(-c2nc(Cl)c(Oc3ccccc3OC)c(Cl)n2)cc1`, 113 to 114 °C.
As for `CC1CC2(CN(O)C2=O)c2cc(F)ccc2O1` (stereo not drawn), the melting point is 118 to 120 °C.
With `Cc1ccccc1S(=O)(=O)NC(=O)Nc1cc(C)c(S(=O)(=O)C[N+](=O)[O-])c(C)c1` the figure was 194 to 196 °C; with `COc1nc(C)cnc1NS(=O)(=O)c1cccnc1-c1ccc(C(C)C)cc1`, 74 to 75 °C.
Next, `Cc1cc(-c2nncc3c(C(C)(C)C)c(OCc4ccccn4)nn23)no1`: 175 to 178 °C; `COc1ccc(S(=O)(=O)Oc2ccc(N3CCNC3=O)cc2)cc1`: 126 to 127 °C.
With `COC(=O)Cn1c(=O)c2ccccc2n(CCCCN2CCC(OC(c3ccccc3)c3ccccc3)CC2)c1=O` the figure was 91 to 93 °C.
Take `O=C(OCCc1ccccc1)ON1C(=O)CCC1=O`: the melting point is 69 to 72 °C.
With `C=CCNC(=S)n1nc(Oc2ncc(C(F)(F)F)cc2Cl)cc1C` the figure was 46 to 48 °C.

As usually defined, the melting point is the temperature of the solid-liquid transition.
